The values below come from US12024707B2, “Methods and compositions for modulating lncRNAs and methods of treatment based on lncRNA expression” (Washington University, priority 2020, dated 2024).

Several values for one entry are separate records, joined by “and”; a condition that tells them apart may be missing. Equal entries are not always repeated. Structures can show the parent of a compound that is named as a salt. Where two headings read alike, the source gives them in different places.

This assay has as its system HT29 RAMS11 overexpressing cells. Nature of the assay: High-throughput viability assay (resazurin), 119 FDA-approved anticancer drugs, RAMS11 overexpressing cells (Clone1, Clone2). Background: The colour change of resazurin is a common sign of viable cells or microbes.
Setting [1] is: OE1 (RAMS11 overexpression clone 1), 0.1 uM drug, 72 h, vs empty vector control.
Where [2] appears, read: OE1 (RAMS11 overexpression clone 1), 1 uM drug, 72 h, vs empty vector control.
[3] abbreviates: OE1 (RAMS11 overexpression clone 1), 10 uM drug, 72 h, vs empty vector control.
Where [4] appears, read: OE2 (RAMS11 overexpression clone 2), 0.1 uM drug, 72 h, vs empty vector control.
Where [5] appears, read: OE2 (RAMS11 overexpression clone 2), 1 uM drug, 72 h, vs empty vector control.
Where [6] appears, read: OE2 (RAMS11 overexpression clone 2), 10 uM drug, 72 h, vs empty vector control.

In the case of `OC[C@H]1O[C@@H](n2cnc3c2NC=NC[C@H]3O)C[C@@H]1O` [Pentostatin], the “Viability Fold Change” value is 0.9312 under setting [1]; 0.9502 under setting [2]; 0.8658 under setting [3]; 0.9287 under setting [4]; 0.9777 under setting [5]; 1.078 under setting [6].
In the case of `O=C(CCBr)N1CCN(C(=O)CCBr)CC1` [Pipobroman], the “Viability Fold Change” value by setting is: under setting [1], 0.9413; under setting [2], 0.9838; under setting [3], 0.9918; under setting [4], 0.9432; under setting [5], 0.9438; under setting [6], 0.8949.
For `c1cc(CN2CCCNCCNCCCNCC2)ccc1CN1CCCNCCNCCCNCC1` [Plerixafor], the “Viability Fold Change” value is 0.9866 under setting [1]; 1.152 under setting [2]; 1.057 under setting [3]; 1.085 under setting [4]; 1.208 under setting [5]; 1.062 under setting [6].
For `Nc1cccc2c1C(=O)N(C1CCC(=O)NC1=O)C2=O` (stereo not shown) [Pomalidomide], the “Viability Fold Change” value is reported as 0.9335 under setting [1]; 0.9509 under setting [2]; 0.9014 under setting [3]; 0.9444 under setting [4]; 0.9433 under setting [5]; 0.933 under setting [6].
`Cc1ccc(C(=O)Nc2ccc(CN3CCN(C)CC3)c(C(F)(F)F)c2)cc1C#Cc1cnc2cccnn12` [Ponatinib]: the “Viability Fold Change” value is 1.056 and 0.9383 and 0.9645 and 1.199 and 0.9342 and 1.001.
Regarding `C#CCC(Cc1cnc2nc(N)nc(N)c2n1)c1ccc(C(=O)N[C@@H](CCC(=O)O)C(=O)O)cc1` (stereo partly shown) [Pralatrexate], the “Viability Fold Change” value came out at 0.7405 under setting [1]; 0.9216 under setting [2]; 1.034 under setting [3]; 0.8579 under setting [4]; 0.9781 under setting [5]; 1.119 under setting [6].
Regarding `CNNCc1ccc(C(=O)NC(C)C)cc1` [Procarbazine], the “Viability Fold Change” value is, setting by setting: under setting [1], 1.003; under setting [2], 1.042; under setting [3], 0.9825; under setting [4], 0.9328; under setting [5], 1.046; under setting [6], 0.9303.
`O=C(c1ccc(OCCN2CCCCC2)cc1)c1c(-c2ccc(O)cc2)sc2cc(O)ccc12` [Raloxifene]: the “Viability Fold Change” value is, setting by setting: under setting [1], 0.9457; under setting [2], 0.9244; under setting [3], 0.9067; under setting [4], 0.9401; under setting [5], 0.9282; under setting [6], 0.9671.
Take `CO[C@H]1C[C@@H]2CC[C@@H](C)[C@@](O)(O2)C(=O)C(=O)N2CCCC[C@H]2C(=O)O[C@H]([C@H](C)C[C@@H]2CC[C@@H](O)[C@H](OC)C2)CC(=O)[C@H](C)/C=C(\C)[C@@H](O)[C@@H](OC)C(=O)[C@H](C)C[C@H](C)/C=C/C=C/C=C/1C` [Rapamycin]: the “Viability Fold Change” value under setting [1] was found to be 0.7003; the “Viability Fold Change” value under setting [2] is 0.7403; the “Viability Fold Change” value under setting [3] worked out at 0.7222; the “Viability Fold Change” value under setting [4] came to 0.6232; the “Viability Fold Change” value under setting [5] amounted to 0.772; the “Viability Fold Change” value under setting [6] turned out to be 0.7575.
For the compound `CNC(=O)c1cc(Oc2ccc(NC(=O)Nc3ccc(Cl)c(C(F)(F)F)c3)c(F)c2)ccn1` [Regorafenib], the “Viability Fold Change” value by setting is: under setting [1], 0.938; under setting [2], 0.9476; under setting [3], 1.158; under setting [4], 0.9919; under setting [5], 1.09; under setting [6], 1.143.
On to `C/C=C1\NC(=O)[C@H]2CSSCC/C=C/[C@H](CC(=O)N[C@H](C(C)C)C(=O)N2)OC(=O)[C@H](C(C)C)NC1=O` [Romidepsin], for which the “Viability Fold Change” value was 6.243 under setting [1]; 5.327 under setting [2]; 4.427 under setting [3]; 6.211 under setting [4]; 5.577 under setting [5]; 4.697 under setting [6].
Regarding `CNC(=O)c1cc(Oc2ccc(NC(=O)Nc3ccc(Cl)c(C(F)(F)F)c3)cc2)ccn1` [Sorafenib], the “Viability Fold Change” value came out at 0.8542 under setting [1]; 0.8177 under setting [2]; 1.022 under setting [3]; 0.8959 under setting [4]; 0.8971 under setting [5]; 1.017 under setting [6].
`CN(N=O)C(=O)N[C@@H](C=O)[C@@H](O)[C@H](O)[C@H](O)CO` [Streptozocin]: the “Viability Fold Change” value is 1.06 under setting [1]; 1.011 under setting [2]; 0.905 under setting [3]; 0.9729 under setting [4]; 1.036 under setting [5]; 0.9955 under setting [6].
In the case of `CCN(CC)CCNC(=O)c1c(C)[nH]c(/C=C2\C(=O)Nc3ccc(F)cc32)c1C` [Sunitinib], the “Viability Fold Change” value runs as follows: under setting [1], 0.8337; under setting [2], 0.8856; under setting [3], 0.2329; under setting [4], 0.914; under setting [5], 0.9165; under setting [6], 0.5714.
As for `CC/C(=C(\c1ccccc1)c1ccc(OCCN(C)C)cc1)c1ccccc1` [Tamoxifen Citrate], the “Viability Fold Change” value under setting [1] is on record as 1.127; the “Viability Fold Change” value under setting [2] stood at 1.144; the “Viability Fold Change” value under setting [3] is given as 1.077; the “Viability Fold Change” value under setting [4] is 1.097; the “Viability Fold Change” value under setting [5] is recorded as 1.08; the “Viability Fold Change” value under setting [6] is 1.059.
As to `Cn1nnc2c(C(N)=O)ncn2c1=O` [Temozolomide], the “Viability Fold Change” value by setting is: under setting [1], 0.9344; under setting [2], 0.9467; under setting [3], 0.8777; under setting [4], 0.8975; under setting [5], 1.032; under setting [6], 0.9198.
Turning to `CO[C@H]1C[C@@H]2CC[C@@H](C)[C@@](O)(O2)C(=O)C(=O)N2CCCC[C@H]2C(=O)O[C@H]([C@H](C)C[C@@H]2CC[C@@H](OC(=O)C(C)(CO)CO)[C@H](OC)C2)CC(=O)[C@H](C)/C=C(\C)[C@@H](O)[C@@H](OC)C(=O)[C@H](C)C[C@H](C)/C=C/C=C/C=C/1C` [Temsirolimus], the “Viability Fold Change” value amounted to 0.7059 under setting [1]; 0.6733 under setting [2]; 0.6861 under setting [3]; 0.6816 under setting [4]; 0.7302 under setting [5]; 0.693 under setting [6].
Consider `COc1cc([C@@H]2c3cc4c(cc3[C@@H](O[C@@H]3O[C@@H]5CO[C@@H](c6cccs6)O[C@H]5[C@H](O)[C@H]3O)[C@H]3COC(=O)[C@H]23)OCO4)cc(OC)c1O` [Teniopside], for which the “Viability Fold Change” value runs as follows: under setting [1], 1.038; under setting [2], 1.327; under setting [3], 2.288; under setting [4], 0.9657; under setting [5], 1.349; under setting [6], 2.261.
For the compound `O=C1CCC(N2C(=O)c3ccccc3C2=O)C(=O)N1` (stereo not shown) [Thalidomide], the “Viability Fold Change” value worked out at 0.9251 under setting [1]; 0.9878 under setting [2]; 0.9064 under setting [3]; 0.8995 under setting [4]; 1 under setting [5]; 1.074 under setting [6].
On to `Nc1nc2nc[nH]c2c(=S)[nH]1` [Thioguanine], for which the “Viability Fold Change” value was 0.9423 under setting [1]; 0.9288 under setting [2]; 0.9702 under setting [3]; 0.8995 under setting [4]; 0.8724 under setting [5]; 1.01 under setting [6].
As to `S=P(N1CC1)(N1CC1)N1CC1` [Thiotepa], the “Viability Fold Change” value was 0.7908 and 0.9826 and 0.9401 and 0.9694 and 0.9433 and 0.8817.
On to `CC[C@@]1(O)C(=O)OCc2c1cc1n(c2=O)Cc2cc3c(CN(C)C)c(O)ccc3nc2-1` [Topotecan HCL], for which the “Viability Fold Change” value is on record as 1.11 under setting [1]; 2.225 under setting [2]; 3.389 under setting [3]; 1.018 under setting [4]; 2.127 under setting [5]; 2.763 under setting [6].
In the case of `CC(=O)Nc1cccc(-n2c(=O)n(C3CC3)c(=O)c3c(Nc4ccc(I)cc4F)n(C)c(=O)c(C)c32)c1` [Trametinib], the “Viability Fold Change” value is, setting by setting: under setting [1], 1.35; under setting [2], 1.732; under setting [3], 1.975; under setting [4], 1.213; under setting [5], 1.641; under setting [6], 1.886.
Take `CC1=C(/C=C/C(C)=C/C=C/C(C)=C/C(=O)O)C(C)(C)CCC1` [Tretinoin]: the “Viability Fold Change” value is, setting by setting: under setting [1], 1.161; under setting [2], 1.226; under setting [3], 1.142; under setting [4], 1.068; under setting [5], 1.373; under setting [6], 1.336.
In the case of `C1CN1c1nc(N2CC2)nc(N2CC2)n1` [Triethylenemelamine], the “Viability Fold Change” value was 1.287 and 1.238 and 0.9974 and 1.295 and 1.284 and 1.013.
On the same count and under the same terms, then `Oc1ncc(N(CCCl)CCCl)c(O)n1` [Uracil mustard], with 0.8306 and 1.02 and 0.9705 and 0.9647 and 1.048 and 0.932.
